Test system: M. tuberculosis H37Rv growth with meropenem, percent inhibition
Test: beta-lactam sensitization of Mtb H37Rv, H37Rv (AID 434955)

O=C(N[C@@H](Cc1ccccc1)C(=O)CCl)OCc1ccccc1
IC90: 46.9 µM

O=C(COC(=O)c1ccc(Cl)cc1[N+](=O)[O-])NNC(=O)c1cccs1
IC90: 51.1 µM

CCCc1cc(C(=O)Nc2ccc(C(C)=O)cc2)no1
IC90: 48.8 µM

CCOC(=O)c1nc(N2CCN(C(=O)OCC)CC2)c2c3c(sc2n1)CCCC3
IC90: 40.9 µM

CC1CCN(CC(CS(=O)(=O)c2ccc([N+](=O)[O-])cc2)N2CCC(C)CC2)CC1 (stereo not drawn)
IC90: 31.5 µM

Cn1ccnc1C(=O)Cc1ccc([N+](=O)[O-])cc1
IC90: 22.6 µM

O=C1COc2ccc(C(=O)/C=C/c3ccccc3)cc2N1
IC90: 12.2 µM

Cc1cc(C)c(-c2c(O)c3ccccc3n(C)c2=O)c(C)c1
IC90: 42.2 µM

CCN(CC(=O)Nc1ccc2c(c1)OCCO2)C(=O)c1ccc([N+](=O)[O-])s1
IC90: 26 µM

Cc1ccc(C)c(N2CCN(CC3CC=CCC3)CC2)c1 (stereo not drawn)
IC90: 60.7 µM

COc1ccc(NC(C)C(=O)N/N=C/c2ccc([N+](=O)[O-])s2)cc1 (stereo not drawn)
IC90: 4.79 µM

COc1ccc(C2(CNC(=O)c3cc([N+](=O)[O-])cc([N+](=O)[O-])c3)CCCC2)cc1OC
IC90: 1.61 µM

O=C(Nc1nc2ccccc2n1CCN1CCCC1)C1CCCCC1
IC90: 27.5 µM

O=C1OC(/C=C/c2ccc(Cl)cc2Cl)=NC/1=C\c1cccs1
IC90: 33.4 µM

O=C(CCCCCN1C(=O)c2cccc([N+](=O)[O-])c2C1=O)Nc1ccccc1F
IC90: 44.1 µM

c1ccc(-n2c3ccccc3c3ccccc32)cc1
IC90: 22.7 µM

CCOc1ccc(N=c2cc(-c3ccc(OC)cc3)oc3ccccc23)cc1
IC90: 50.3 µM

COc1ccccc1N1CCN(CC(=O)Nc2cc(F)ccc2C)CC1
IC90: 91 µM

C/C(=N\NC(=S)Nc1ccccc1C)c1ccc(O)cc1
IC90: 7.97 µM

Cc1ccc(S(=O)(=O)Nc2cccc3cccnc23)c([N+](=O)[O-])c1
IC90: 4.7 µM

Nc1ccc(N=Nc2ccccc2O)c(N)c1
IC90: 34 µM

O=C1Nc2c(ccc(Cl)c2Cl)C(=O)C1(F)c1ccccc1 (stereo not drawn)
IC90: 71.7 µM

CC1CCCN(C(=O)C2CCN(c3ncnc4c3nc3n4CCCCC3)CC2)C1 (stereo not drawn)
IC90: 49.7 µM

COc1cc(C(=S)N2CCOCC2)ccc1OC(=O)c1ccc([N+](=O)[O-])cc1[N+](=O)[O-]
IC90: 5.92 µM

COc1cc(C(=O)N/N=C/c2ccc(OC(=O)c3cccc(C)c3)cc2)ccc1O
IC90: 53.4 µM

Cc1ccccc1NC(=O)/C(C#N)=C\c1cc(C)n(-c2ccc(C(=O)O)cc2)c1C
IC90: 51.1 µM

COc1ccc(-c2csc(NC(CO)c3nc4ccccc4n3Cc3ccc(C)cc3)n2)cc1 (stereo not drawn)
IC90: 26.4 µM

CCNc1nc(CN2CCCCC2)nc2scc(-c3ccccc3)c12
IC90: 57.3 µM

O=C(N/N=C/c1ccc([N+](=O)[O-])o1)c1ccccc1-n1cccc1
IC90: 29.4 µM

CCOC(=O)CSc1nnc(CNC(=O)c2cccs2)n1CCc1ccccc1
IC90: 49.5 µM

O=C(CCl)N(c1ccccc1)C1CCS(=O)(=O)C1 (stereo not drawn)
IC90: 13.9 µM

CN(C)C1=C(Cl)C(=O)N(c2ccc(Cl)c(Cl)c2)C1=O
IC90: 14.9 µM

O=C(CSc1ncn[nH]1)Nc1cccc2ccccc12
IC90: 65 µM

CC(C)(C)C1=Nn2c(nnc2-c2ccccc2F)SC1
IC90: 78.3 µM

CC(C)(C)c1ccc(C(=O)Oc2ccc3c(c2)OCC3=O)cc1
IC90: 29.4 µM

CCOc1ccc(S(=O)(=O)N(C(=O)c2ccco2)c2cc3sc(=O)oc3c3ccccc23)cc1
IC90: 46.9 µM

Cn1c(/C=N/c2nc3ccccc3[nH]2)nc2ccccc21
IC90: 4.17 µM

COc1cccc(/C=C/c2[nH]c(=O)[nH]c(=O)c2[N+](=O)[O-])c1O
IC90: 15.9 µM

Cc1ccc(Nc2nc(N)nc(CC#N)n2)cc1
IC90: 92.7 µM

CC(=O)Nc1ccc(S(=O)(=O)Nc2cccc3cccnc23)cc1
IC90: 43.3 µM

CCN(CC)CCCNC(=O)c1c(O)c2ccccc2n(Cc2ccccc2)c1=O
IC90: 13.8 µM

COc1ccc(-c2cc(=Nc3ccc(C)cc3)c3ccccc3o2)cc1
IC90: 98.3 µM

O=[N+]([O-])c1cc(C(F)(F)F)ccc1NCCc1c[nH]c2ccc(O)cc12
IC90: 72.9 µM

COc1ccccc1NS(=O)(=O)c1cccc(N2CC(O)=C(c3ccccc3)C2=N)c1
IC90: 16 µM

CCN(CC)c1ccc(CN2CCCCCC2)cc1
IC90: 49.4 µM

O=C(NCC1COc2ccccc2O1)C1CCC(CNc2c(N3CCCCC3)c(=O)c2=O)CC1 (stereo not drawn)
IC90: 26.7 µM

CCOC(=O)c1c(C)n(-c2ccccc2)c2ccc(OCCN(C)C)cc12
IC90: 21.7 µM

Cc1cc(=S)nc(-c2ccccn2)[nH]1
IC90: 19.7 µM

O=C1S/C(=C\C=C\c2ccco2)C(=O)N1c1ccccc1
IC90: 77.6 µM

CC12CCC(C/C1=N\N=C1\NC(=O)/C(=C\c3cccc(Br)c3)S1)C2(C)C (stereo not drawn)
IC90: 37.7 µM

O=C(CCSc1ccc(Cl)c(Cl)c1)NC12CC3CC(CC(C3)C1)C2
IC90: 12.3 µM

Cc1cc(C)cc(NC(=O)c2cc(Cl)sc2Cl)c1
IC90: 7.73 µM

O=c1c2cc(Cl)ccc2[nH]c(=S)n1Cc1cccs1
IC90: 13.2 µM

Cc1c(C(=O)NCCC2=CCCCC2)sc2ncnc(N3CCCCC3C)c12 (stereo not drawn)
IC90: 52 µM

Cc1ccc(C)c(N2CCN(C3CCCC(C)C3)CC2)c1 (stereo not drawn)
IC90: 48.2 µM

CCC(CC)c1nnc(NC(=O)c2ccc(N3CCCCC3)c([N+](=O)[O-])c2)s1
IC90: 44 µM

CCN(CC)S(=O)(=O)c1ccc(N/N=C(\C)c2ccc(OC)cc2O)nc1
IC90: 10.4 µM

Cc1[nH]n(-c2ccccc2)c(=O)c1/C=N/NC(=O)c1ccoc1C
IC90: 3.01 µM

Cc1cc(=O)[nH]c(N/N=C/c2c(O)n(-c3ccccc3)c(=O)c3ccccc23)n1
IC90: 13.6 µM

CCCCNC(=O)c1onc(CSc2ccc(OC)cc2)c1C(=O)O
IC90: 27.2 µM

C=CCNC1=C(Cl)C(=O)N(c2cccc(Cl)c2Cl)C1=O
IC90: 30.2 µM

Cc1nnc(SCc2cccc(Cl)c2)n(N)c1=O
IC90: 10.1 µM

Cc1nn(-c2ccccc2)c(N2CCCC2)c1/C=C1\N=C(c2ccc(F)cc2)OC1=O
IC90: 22.9 µM

O=c1cc(C(F)(F)F)c2sc(N3CCCCC3)nc2[nH]1
IC90: 49.3 µM

CN(C(=O)Nc1ccc(Cl)cc1)n1cnc2ccccc2c1=O
IC90: 48.6 µM

C=CCc1cc(Cl)ccc1OCCCNC(C)CC (stereo not drawn)
IC90: 51.3 µM

CCCCN(C)Cc1cc(=O)oc2cc3c(cc12)CCCC3
IC90: 82.2 µM

COc1cccc(C(=O)C2CCCN(Cc3ccccn3)C2)c1 (stereo not drawn)
IC90: 97.5 µM

O=C(CN1CCC(O)(c2ccc3c(c2)OCO3)CC1)OC1CCCCC1
IC90: 35.3 µM

O=[N+]([O-])c1cc(Cl)cc(/C=N/NC(=S)Nc2cc(S(=O)(=O)N3CCOCC3)ccc2Cl)c1O
IC90: 29.3 µM

CCCc1cc(NC(=O)COC(=O)c2nccnc2N)n(-c2ccccc2)n1
IC90: 50.8 µM

Cc1c(OCc2ccc(C(=O)O)cc2)ccc2c(-c3ccccc3)cc(=O)oc12
IC90: 2.09 µM

C/C(CC(=O)NCc1ccco1)=N\NC(=O)CC#N
IC90: 17.6 µM

Cc1ccccc1OCC(=O)Nc1ccccc1N1CCCCC1
IC90: 13.5 µM

COc1ccc2c(c1)c(C(C)=O)c(C)n2-c1ccccc1
IC90: 6.92 µM

COc1cccc(/C=N/Nc2nc(N3CCCC3)nc(N3CCCC3)n2)c1O
IC90: 36.1 µM

O=C1COc2ccc(C(=O)CCl)cc2N1
IC90: 44.4 µM

Cc1nnnn1/C(=C\c1ccccc1)C(=O)OCC(=O)Nc1ccc(Cl)cc1F
IC90: 25.5 µM

COc1cc(CNCCO)cc(Br)c1OCc1ccccc1Cl
IC90: 52.7 µM

O=C(Cn1cnc2sc3c(c2c1=O)CCCC3)NCC(=O)Nc1ccccc1F
IC90: 95.5 µM

CC(C)(C)c1ccc(OCc2ccc(C(=O)N/N=C3\CC4CC=CC34)cc2)cc1 (stereo not drawn)
IC90: 45.3 µM

Cc1cccc(OCc2nc(-c3ccccn3)n[nH]2)c1
IC90: 7.37 µM

O=C(Nc1ccccc1)Nc1csc2ccccc12
IC90: 20.9 µM
